Experimental data published in US10189782B2, “Derivatives of indole for the treatment of cancer, viral infections and lung diseases” (BIOKINESIS, priority 2012, dated 2019).
Counter-ions that a name gives are not always drawn. Like-named read-outs stand apart in the source and are kept apart here.

Assays:
[1] = target: T1, Human recombinant MKlp2 motor domain1-519, His tagged (Homo sapiens, UniProt O95235); assay: Microtubule stimulated ATPase activity of the MKlp2 motor domain (Kinesin ELIPA Assay Kit); type: biochemical; conditions: read-out: MKIp2 IC50
T1 construct: Human recombinant MKlp2 motor domain1-519, His tagged; His; purchased Cytoskeleton MP05
T1 sequence (O95235 1-519): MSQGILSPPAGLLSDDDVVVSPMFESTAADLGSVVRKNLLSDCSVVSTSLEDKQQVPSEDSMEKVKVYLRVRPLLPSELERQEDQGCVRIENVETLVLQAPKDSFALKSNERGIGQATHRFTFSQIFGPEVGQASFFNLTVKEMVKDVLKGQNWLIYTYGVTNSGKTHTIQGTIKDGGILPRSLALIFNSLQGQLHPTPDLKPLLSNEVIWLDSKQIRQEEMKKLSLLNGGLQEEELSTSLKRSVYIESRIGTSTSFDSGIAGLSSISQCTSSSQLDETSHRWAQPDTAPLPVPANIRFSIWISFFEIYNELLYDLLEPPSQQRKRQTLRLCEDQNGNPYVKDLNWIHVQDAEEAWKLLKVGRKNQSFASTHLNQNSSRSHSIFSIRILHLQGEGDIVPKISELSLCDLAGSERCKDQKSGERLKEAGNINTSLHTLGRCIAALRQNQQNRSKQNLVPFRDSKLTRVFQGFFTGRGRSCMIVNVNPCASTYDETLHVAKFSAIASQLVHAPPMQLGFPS
Protocol: Evaluation of Inhibitory Effects on the Microtubule Stimulated ATPase Activity of the MKlp2 Motor Domain.
MKlp2 ATPase activity was measured by monitoring real time free phosphate generation using the Kinesin ELIPA Assay Kit. The assay is based upon an absorbance shift (330 nm-360 nm) that occurs when 2-amino-6-mercapto-7-methylpurine ribonucleoside (MESG) is catalytically converted to 2-amino-6-mercapto-7-methylpurine in the presence of inorganic phosphate (Pi). One molecule of Pi will yield one molecule of 2-amino-6-mercapto-7-methylpurine in an essentially irreversible reaction.
All experiments were performed at 22° C.
Condition 1, compound preparation.
The compounds were dissolved in DMSO at 30× the maximum concentration to be tested. […] DMSO solutions were pipetted directly into each well.
Condition 2, reaction's “motor mix”.
The following were mixed sequentially in the specified order at RT to obtain the “motor mix”.
20 mL: 15 mM Pipes-NaOH pH 7.0, 10 mM MgCl2, 30 μM Tx (Buffer 1).
10 mL: 5× MSEG (ELIPA 1 reagent, Cat. # BK051).
10 mL: 2.5 mg/mL porcine brain microtubules (3×10 mg Cat. # MT002-XL resuspended in 12 mL of Buffer 1).
0.5 mL: 100×PNP (ELIPA 2 reagent, cat. # BK051).
Condition 3, reaction initiation.
The motor mix was pipetted into each well to obtain 80% of total volume. The reaction was initiated by adding a 20% of total volume of 5 mM ATP into each well.
The reactions were measured in a SpectraMax M2 (Molecular Devices) set in kinetic mode and 360 nm absorbance wavelength. The start protocol was 5 second rapid circular mixing, 21 readings, 30 seconds apart.

K562 cells = assay: Cytotoxicity on human cancer cells (WST-1), K562; type: cell-based; conditions: WST-1 on D4, read-out: K562 IC50
Protocol: Evaluation of Cytotoxicity Effects on Human Cancer Cells
The effects of the compounds of the invention on the viability of human cancer cells were studied on various human cancer cell lines of differing tissue origins (A549, NCI-H460: lung cancer; MDA-MB-231: breast cancer; HCT-116, HT-29: colon cancer; MIA-PaCa-2: pancreatic cancer; K562: leukaemia). All cell lines were obtained from ATCC or ECACC. Cells were cultured in the culture media described below, under a 37° C., 5% CO2 humidified atmosphere, according to a standard operating procedure.
On D0, the cells were plated in 90 μl in 96 wells plates at densities ranging from 500 to 5,000 cells per well.
Following addition of the test substance the cells were protected from light. The solvents (DMSO and specific control solvent were added at the maximal concentration: 10 μl/well (3 wells/condition)).
On D4, the Cell Proliferation Reagent WST-1 was added to each well (10 μl/well), according to a standard operating procedure. The cells were then incubated for 30 min to 4 h at 37° C.-5% CO2. After these incubations, the 96-well plates were shaken thoroughly for 1 min with Multiskan® EX apparatus (Thermo Labsystems, France). The absorbence was measured at 450 nm, the reference wavelength being 620 nm. The analysis of the results was performed with the Ascent software 2.6 (Thermo Labsystems, France), Microsoft Excel 2003 and GraphPad Prism 4.03 softwares to give the concentration of the compounds that induces the death of 50% of the cells (IC50).

[2] = Table 6 (prodrugs, formula II), K562 cells

Structure (SMILES) | IC50 ([1]; Table 6 (prodrugs, formula II)) [nM] | IC50 ([1]; Table 3, 22° C.) [nM] | IC50 (K562 cells; [2]) [nM] | IC50 (K562 cells; Table 4, K562 leukaemia cells) [nM]
COc1ccc(C#N)cc1/C=C(\C#N)c1cn(C(=O)CC(NC(=O)OC(C)(C)C)C(=O)OCc2ccccc2)c2ccc(Br)cc12 (stereo in doubt) [Example 65, (R,Z)-benzyl-4-(5-bromo-3-(1-cyano-2-(5-cyano-2-methoxyphenyl)vinyl)-1H-indol-1-yl)-2-(tert-butoxycarbonylamino)-4-oxobutanoate] | 10100 | – | 40 | –
COc1ccc(C#N)cc1/C=C(\C#N)c1cn(C(=O)CCC(NC(=O)OC(C)(C)C)C(=O)OC(C)(C)C)c2ccc(Br)cc12 (stereo in doubt) [Example 66, (R,Z)-tert-butyl-5-(5-bromo-3-(1-cyano-2-(5-cyano-2-methoxyphenyl)vinyl)-1H-indol-1-yl)-2-(tert-butoxycarbonylamino)-5-oxopentanoate] | 5400 | – | 30 | –
N#C/C(=C\c1cnccc1Cl)c1c[nH]c2ccc(Cl)cc12 [Example 3, (Z)-2-(5-chloro-1H-indol-3-yl)-3-(4-chloropyridin-3-yl)acrylonitrile] | – | 800 | – | 3600
N#C/C(=C\c1cnccc1Cl)c1c[nH]c2ccc(Br)cc12 [Example 4, (Z)-2-(5-bromo-1H-indol-3-yl)-3-(4-chloropyridin-3-yl)acrylonitrile] | – | 700 | – | 1400
COc1ccncc1/C=C(/C#N)c1c[nH]c2ccc(Br)cc12 [Example 5b, (E)-2-(5-bromo-1H-indol-3-yl)-3-(4-methoxypyridin-3-yl)acrylonitrile] | – | 610 | – | 3920
CN(C)c1ccncc1/C=C(\C#N)c1c[nH]c2ccc(Br)cc12 [Example 8, (Z)-2-(5-bromo-1H-indol-3-yl)-3-(4-(dimethylamino)pyridin-3-yl)acrylonitrile] | – | 900 | – | 7500
COc1ccncc1/C=C(\C#N)c1c[nH]c2ccc(Cl)cc12 [Example 9, (Z)-2-(5-chloro-1H-indol-3-yl)-3-(4-methoxypyridin-3-yl)acrylonitrile] | – | 100 | – | 1400
COc1ccc2[nH]cc(/C(C#N)=C/c3cnccc3OC)c2c1 [Example 12, (Z)-2-(5-methoxy-1H-indol-3-yl)-3-(4-methoxypyridin-3-yl)acrylonitrile] | – | 300 | – | 900
CSc1ccncc1/C=C(\C#N)c1c[nH]c2ccc(Br)cc12 [Example 15, (Z)-2-(5-bromo-1H-indol-3-yl)-3-(4-(methylthio)pyridin-3-yl)acrylonitrile] | – | 200 | – | 2900
CCN(CC)c1ccncc1/C=C(\C#N)c1c[nH]c2ccc(Br)cc12 [Example 24, (Z)-2-(5-bromo-1H-indol-3-yl)-3-(4-(diethylamino)pyridin-3-yl)acrylonitrile] | – | 1100 | – | 3100
N#C/C(=C\c1cnccc1-c1ccoc1)c1c[nH]c2ccc(Cl)cc12 [Example 29, (Z)-2-(5-chloro-1H-indol-3-yl)-3-(4-(furan-3-yl)pyridin-3-yl)acrylonitrile] | – | 30 | – | 4700

Further lines, with some results ahead:

IC50 ([1]; Table 6 (prodrugs, formula II)) [nM] | IC50 ([1]; Table 3, 22° C.) [nM] | Structure (SMILES) | IC50 (K562 cells; [2]) [nM] | IC50 (K562 cells; Table 4, K562 leukaemia cells) [nM]
3100 | – | COc1ccc(C#N)cc1/C=C(\C#N)c1cn(C(=O)CC(N)C(=O)OCc2ccccc2)c2ccc(Br)cc12 (stereo in doubt) [Example 67, (R,Z)-benzyl-2-amino-4-(5-bromo-3-(1-cyano-2-(5-cyano-2-methoxyphenyl)vinyl)-1H-indol-1-yl)-4-oxobutanoate] | 40 | –
– | 70 | N#C/C(=C\c1cnccc1-c1ccoc1)c1c[nH]c2ccc(Br)cc12 [Example 34, (Z)-2-(5-bromo-1H-indol-3-yl)-3-(4-(furan-3-yl)pyridin-3-yl)acrylonitrile] | – | 2200
– | 960 | N#C/C(=C/c1cnccc1-c1ccoc1)c1c[nH]c2ccc(Br)cc12 [Example 34b, (E)-2-(5-bromo-1H-indol-3-yl)-3-(4-(furan-3-yl)pyridin-3-yl)acrylonitrile] | – | 14300
– | 730 | N#C/C(=C\c1c[n+]([O-])ccc1-c1ccoc1)c1c[nH]c2ccc(Br)cc12 [Example 48, (Z)-3-(2-(5-bromo-1H-indol-3-yl)-2-cyanovinyl)-4-(furan-3-yl)pyridine-1-oxide] | – | 6710
– | 560 | COc1cc[n+]([O-])cc1/C=C(\C#N)c1c[nH]c2ccc(Cl)cc12 [Example 49, (Z)-3-(2-(5-chloro-1H-indol-3-yl)-2-cyanovinyl)-4-methoxypyridine 1-oxide] | – | 9230
– | 1400 | COc1ccc2c(/C(C#N)=C/c3cc(C#N)ccc3OC)c[nH]c2c1 [Example 54, (Z)-3-(2-cyano-2-(6-methoxy-1H-indol-3-yl)vinyl)-4-methoxybenzonitrile] | – | 20
13700 | – | COc1ccncc1/C=C(\C#N)c1cn(C(C)=O)c2ccc(Br)cc12 [Example 55, (Z)-2-(1-acetyl-5-bromo-1H-indol-3-yl)-3-(4-methoxypyridin-3-yl)acrylonitrile] | 550 | –
16700 | – | COc1ccc(C#N)cc1/C=C(\C#N)c1cn(C(C)=O)c2ccc(Br)cc12 [Example 56, (Z)-3-(2-(1-acetyl-5-bromo-1H-indol-3-yl)-2-cyanovinyl)-4-methoxybenzonitrile] | 250 | –
20000 | – | COc1ccncc1/C=C(\C#N)c1cn(C(=O)C(C)(C)C)c2ccc(Br)cc12 [Example 57, (Z)-2-(5-bromo-1-pivaloyl-1H-indol-3-yl)-3-(4-methoxypyridin-3-yl)acrylonitrile] | 200 | –
7500 | – | COc1ccc(C#N)cc1/C=C(\C#N)c1cn(C(=O)C(C)(C)C)c2ccc(Br)cc12 [Example 58, (Z)-3-(2-(5-bromo-1-pivaloyl-1H-indol-3-yl)-2-cyanovinyl)-4-methoxybenzonitrile] | 60 | –
19600 | – | COc1ccc(C#N)cc1/C=C(\C#N)c1cn(C(=O)OC(C)(C)C)c2ccc(Br)cc12 [Example 64, (Z)-tert-butyl 5-bromo-3-(1-cyano-2-(5-cyano-2-methoxyphenyl)vinyl)-1H-indole-1-carboxylate] | 240 | –
> 50000 | – | COc1ccc(C#N)cc1/C=C(\C#N)c1cn(C(=O)CN2CCN(C)CC2)c2ccc(Br)cc12 [Example 68, (Z)-3-(2-(5-bromo-1-(2-(4-methylpiperazin-1-yl)acetyl)-1H-indol-3-yl)-2-cyanovinyl)-4-methoxybenzonitrile] | 30 | –
> 50000 | – | COc1ccc(C#N)cc1/C=C(\C#N)c1cn(C(=O)C[C@H](C)N)c2ccc(Br)cc12 [Example 70, (S,Z)-3-(2-(1-(3-aminobutanoyl)-5-bromo-1H-indol-3-yl)-2-cyanovinyl)-4-methoxybenzonitrile hydrochloride] | 10 | –
1900 | – | COc1ccc(C#N)cc1/C=C(\C#N)c1cn(C(=O)CN)c2ccc(Br)cc12 [Example 71, (Z)-3-(2-(1-(2-aminoacetyl)-5-bromo-1H-indol-3-yl)-2-cyanovinyl)-4-methoxybenzonitrile hydrochloride] | 10 | –
